Results on seven molecules are retold here after ChEMBL document CHEMBL5291721, “A preclinical secondary pharmacology resource illuminates target-adverse drug reaction associations of marketed drugs” (Nat Commun, 2023).

The target of experiment [1] is T1, Alpha-2A adrenergic receptor (Homo sapiens, UniProt P08913).
T1 sequence (P08913 whole entry): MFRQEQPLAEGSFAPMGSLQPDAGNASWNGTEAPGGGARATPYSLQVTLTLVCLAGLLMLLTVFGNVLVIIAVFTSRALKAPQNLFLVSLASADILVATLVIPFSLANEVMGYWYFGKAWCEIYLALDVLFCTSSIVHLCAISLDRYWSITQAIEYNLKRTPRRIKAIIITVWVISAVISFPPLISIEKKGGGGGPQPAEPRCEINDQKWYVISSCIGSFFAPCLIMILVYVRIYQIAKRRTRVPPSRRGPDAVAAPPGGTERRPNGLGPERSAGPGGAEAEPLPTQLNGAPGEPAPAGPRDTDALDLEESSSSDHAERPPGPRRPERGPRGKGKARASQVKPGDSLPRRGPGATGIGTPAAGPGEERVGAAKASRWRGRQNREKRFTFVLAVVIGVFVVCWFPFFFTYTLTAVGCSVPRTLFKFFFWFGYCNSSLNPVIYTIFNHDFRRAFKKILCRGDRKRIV
The format is functional, cell-based.

For experiment [2], the target named is Beta-1 adrenergic receptor (Homo sapiens, UniProt P08588). The format is functional.
The next experiment deals with T2, Endothelin-1 receptor (Homo sapiens, UniProt P25101).
T2 sequence (P25101 whole entry): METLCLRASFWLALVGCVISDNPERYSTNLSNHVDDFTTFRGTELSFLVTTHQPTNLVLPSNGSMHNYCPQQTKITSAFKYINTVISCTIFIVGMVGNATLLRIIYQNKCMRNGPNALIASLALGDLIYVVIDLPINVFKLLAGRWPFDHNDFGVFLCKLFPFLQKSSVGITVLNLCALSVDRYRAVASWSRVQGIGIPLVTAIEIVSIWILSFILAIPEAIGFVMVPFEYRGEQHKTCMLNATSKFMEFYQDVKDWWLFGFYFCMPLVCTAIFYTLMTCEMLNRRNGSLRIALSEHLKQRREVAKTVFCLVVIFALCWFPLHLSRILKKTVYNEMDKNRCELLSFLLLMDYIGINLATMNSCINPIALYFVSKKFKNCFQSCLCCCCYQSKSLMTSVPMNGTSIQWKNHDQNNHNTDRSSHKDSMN

For experiment [3], the target named is Gamma-aminobutyric acid receptor subunit alpha-1 (Rattus norvegicus, UniProt P62813).
The target of experiment [4] is T3, 5-hydroxytryptamine receptor 3A (Homo sapiens, UniProt P46098).
T3 sequence (P46098 whole entry): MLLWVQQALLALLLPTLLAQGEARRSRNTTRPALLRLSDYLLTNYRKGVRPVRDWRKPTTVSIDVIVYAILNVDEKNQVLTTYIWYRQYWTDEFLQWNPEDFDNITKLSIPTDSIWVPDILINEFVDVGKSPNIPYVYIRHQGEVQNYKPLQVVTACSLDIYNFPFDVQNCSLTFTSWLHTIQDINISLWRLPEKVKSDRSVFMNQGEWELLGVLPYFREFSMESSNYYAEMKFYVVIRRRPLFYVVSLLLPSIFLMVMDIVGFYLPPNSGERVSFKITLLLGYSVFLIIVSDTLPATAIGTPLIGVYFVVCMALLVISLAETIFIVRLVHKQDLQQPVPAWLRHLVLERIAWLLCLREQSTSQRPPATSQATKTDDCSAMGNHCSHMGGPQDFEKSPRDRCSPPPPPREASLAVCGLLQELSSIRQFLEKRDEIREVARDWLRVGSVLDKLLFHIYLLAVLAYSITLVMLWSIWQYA
It counts as functional.

A further experiment concerns the target Motilin receptor (Homo sapiens, UniProt O43193).
Experiment [5] deals with T4, Equilibrative nucleoside transporter 1 (Homo sapiens, UniProt Q99808).
T4 sequence (Q99808 whole entry): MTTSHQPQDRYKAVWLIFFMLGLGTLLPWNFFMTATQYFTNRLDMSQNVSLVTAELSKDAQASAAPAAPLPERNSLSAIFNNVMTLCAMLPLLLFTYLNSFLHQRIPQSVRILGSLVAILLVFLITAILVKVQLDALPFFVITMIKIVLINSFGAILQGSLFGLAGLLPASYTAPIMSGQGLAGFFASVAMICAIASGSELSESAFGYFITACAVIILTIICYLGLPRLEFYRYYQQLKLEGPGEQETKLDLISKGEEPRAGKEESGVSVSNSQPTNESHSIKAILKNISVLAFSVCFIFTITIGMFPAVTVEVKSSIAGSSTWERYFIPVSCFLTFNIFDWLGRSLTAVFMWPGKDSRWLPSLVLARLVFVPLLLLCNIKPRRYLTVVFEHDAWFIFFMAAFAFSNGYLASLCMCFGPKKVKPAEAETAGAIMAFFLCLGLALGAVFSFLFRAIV

The target of experiment [6] is T5, Amine oxidase [flavin-containing] A (Homo sapiens, UniProt P21397).
T5 sequence (P21397 whole entry): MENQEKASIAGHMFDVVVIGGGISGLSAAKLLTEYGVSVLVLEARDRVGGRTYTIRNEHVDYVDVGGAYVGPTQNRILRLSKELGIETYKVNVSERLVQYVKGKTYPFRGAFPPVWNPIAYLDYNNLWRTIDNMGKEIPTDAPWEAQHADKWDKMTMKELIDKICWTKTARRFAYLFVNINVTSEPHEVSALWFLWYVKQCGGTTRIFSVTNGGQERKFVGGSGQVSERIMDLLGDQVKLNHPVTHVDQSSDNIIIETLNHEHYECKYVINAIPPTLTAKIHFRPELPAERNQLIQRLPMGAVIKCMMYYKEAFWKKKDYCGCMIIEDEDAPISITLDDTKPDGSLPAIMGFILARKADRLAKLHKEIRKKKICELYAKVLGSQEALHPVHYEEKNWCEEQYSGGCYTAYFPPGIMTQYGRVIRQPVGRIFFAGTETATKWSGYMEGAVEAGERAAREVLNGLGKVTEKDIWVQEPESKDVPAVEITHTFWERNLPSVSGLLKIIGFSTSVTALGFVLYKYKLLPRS
The format is functional.

The next experiment has as its target D(3) dopamine receptor (Homo sapiens, UniProt P35462).
Further: assay procedure not described here.

Sequence of Beta-1 adrenergic receptor (P08588 whole entry): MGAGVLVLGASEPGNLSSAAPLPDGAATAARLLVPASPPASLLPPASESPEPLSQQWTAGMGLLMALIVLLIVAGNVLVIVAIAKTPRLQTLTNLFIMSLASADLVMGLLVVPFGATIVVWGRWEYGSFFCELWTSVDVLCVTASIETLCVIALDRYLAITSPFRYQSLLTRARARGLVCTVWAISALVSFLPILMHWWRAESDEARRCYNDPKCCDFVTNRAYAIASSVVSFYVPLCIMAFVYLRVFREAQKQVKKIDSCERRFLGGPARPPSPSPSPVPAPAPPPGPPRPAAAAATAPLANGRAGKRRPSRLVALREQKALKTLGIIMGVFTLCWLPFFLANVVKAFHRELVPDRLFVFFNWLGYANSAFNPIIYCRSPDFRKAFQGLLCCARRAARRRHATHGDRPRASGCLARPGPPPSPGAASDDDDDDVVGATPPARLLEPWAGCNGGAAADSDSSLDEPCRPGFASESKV
Sequence of D(3) dopamine receptor (P35462 whole entry): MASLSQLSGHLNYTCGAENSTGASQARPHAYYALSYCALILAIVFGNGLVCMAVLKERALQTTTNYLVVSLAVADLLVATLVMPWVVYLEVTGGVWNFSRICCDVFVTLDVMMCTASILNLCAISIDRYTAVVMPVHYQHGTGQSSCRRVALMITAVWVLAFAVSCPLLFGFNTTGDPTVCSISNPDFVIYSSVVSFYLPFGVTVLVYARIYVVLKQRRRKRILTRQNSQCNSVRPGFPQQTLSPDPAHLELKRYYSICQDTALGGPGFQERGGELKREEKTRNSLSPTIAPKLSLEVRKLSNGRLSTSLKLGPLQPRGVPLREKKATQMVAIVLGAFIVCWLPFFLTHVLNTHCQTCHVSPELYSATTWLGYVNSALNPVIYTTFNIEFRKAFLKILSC
Sequence of Gamma-aminobutyric acid receptor subunit alpha-1 (P62813 whole entry): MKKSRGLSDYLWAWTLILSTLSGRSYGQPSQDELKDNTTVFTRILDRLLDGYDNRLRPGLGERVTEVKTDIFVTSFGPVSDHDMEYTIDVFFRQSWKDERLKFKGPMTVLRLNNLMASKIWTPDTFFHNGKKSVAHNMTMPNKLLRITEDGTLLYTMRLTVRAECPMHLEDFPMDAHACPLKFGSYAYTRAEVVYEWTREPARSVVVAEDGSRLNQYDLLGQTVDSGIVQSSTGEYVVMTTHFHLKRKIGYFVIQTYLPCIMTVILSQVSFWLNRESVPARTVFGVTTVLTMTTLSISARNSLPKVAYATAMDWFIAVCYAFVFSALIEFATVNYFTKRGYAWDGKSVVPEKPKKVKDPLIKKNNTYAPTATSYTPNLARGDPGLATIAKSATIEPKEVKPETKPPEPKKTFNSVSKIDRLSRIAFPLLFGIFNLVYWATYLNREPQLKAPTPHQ
Sequence of Motilin receptor (O43193 whole entry): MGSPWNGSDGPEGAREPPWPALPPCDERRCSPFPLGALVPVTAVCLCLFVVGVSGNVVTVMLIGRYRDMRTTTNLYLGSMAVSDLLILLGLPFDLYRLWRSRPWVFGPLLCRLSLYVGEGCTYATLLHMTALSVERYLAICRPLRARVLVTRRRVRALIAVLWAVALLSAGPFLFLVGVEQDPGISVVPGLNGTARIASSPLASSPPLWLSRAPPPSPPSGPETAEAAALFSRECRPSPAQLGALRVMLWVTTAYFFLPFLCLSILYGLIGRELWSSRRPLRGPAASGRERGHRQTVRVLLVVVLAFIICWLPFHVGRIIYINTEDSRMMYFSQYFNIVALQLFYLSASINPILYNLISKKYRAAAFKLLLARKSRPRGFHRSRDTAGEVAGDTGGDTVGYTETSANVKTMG

With TOCOFERSOLAN, the AC50 (in experiment [1]; in [2]; at Endothelin-1 receptor; in [3]; in experiment [4]; on Motilin receptor) was above 30 µM throughout. Moreover, the AC50 (in experiment [5]; in [6]; at D(3) dopamine receptor) was above 30 µM in each case.

With `CC(C)c1c(C(=O)Nc2ccccc2)c(-c2ccccc2)c(-c2ccc(F)cc2)n1CC[C@@H](O)C[C@@H](O)CC(=O)O` [ATORVASTATIN], the AC50 was above 10 µM in experiment [1]; above 10 µM in experiment [2]; above 30 µM on Endothelin-1 receptor; above 10 µM in [3]; above 30 µM in experiment [4]; above 10 µM on Motilin receptor. For the same molecule, the AC50 was above 30 µM in experiment [5], above 10 µM in experiment [6] and above 30 µM at D(3) dopamine receptor.

Turning to `CC(C)(Oc1ccc(C2CC2(Cl)Cl)cc1)C(=O)O` (stereo not drawn) [CIPROFIBRATE], the AC50 (in experiment [1]; in experiment [2]; on Endothelin-1 receptor; in experiment [3]; in experiment [4]; at Motilin receptor) was above 30 µM in each case. In addition, the AC50 (in experiment [5]; in [6]; at D(3) dopamine receptor) was above 30 µM throughout.

Take `O=C(OCCN1CCOCC1)c1cccnc1Nc1cccc(C(F)(F)F)c1` [MORNIFLUMATE]: the AC50 (in [1]; in [2]; on Endothelin-1 receptor; in experiment [3]; in experiment [4]; on Motilin receptor) was above 30 µM each time. The concentration at half-maximal activity (AC50) (in [5]; in [6]; on D(3) dopamine receptor) was above 30 µM each time.

Regarding `C[C@H]1C[C@@H]2[C@H]([C@@H](O)C[C@@]3(C)[C@H]2CC[C@]3(O)C(=O)COC(=O)CCC(=O)O)[C@@]2(C)C=CC(=O)C=C12` [METHYLPREDNISOLONE HEMISUCCINATE], the AC50 (in experiment [1]; in experiment [2]; at Endothelin-1 receptor; in experiment [3]; in experiment [4]; on Motilin receptor) was above 30 µM in each case. For the same molecule, the AC50 (in [5]; in experiment [6]; on D(3) dopamine receptor) was above 30 µM in each case.

With `NC(CO)C(=O)NNCc1ccc(O)c(O)c1O` (stereo not drawn) [BENSERAZIDE], the AC50 in experiment [1] is above 10 µM; in experiment [2], above 10 µM; at Endothelin-1 receptor it was above 30 µM; in experiment [3] it was above 10 µM; in experiment [4] it was above 30 µM; on Motilin receptor it was above 10 µM. Besides, the AC50 in experiment [5] is above 30 µM; in experiment [6], above 10 µM; on D(3) dopamine receptor, above 30 µM.

`COC(=O)[C@H]1[C@@H](OC(=O)c2ccccc2)C[C@@H]2CC[C@H]1N2C` [COCAINE]: the concentration at half-maximal activity (AC50) (in [1]; in experiment [2]; at Endothelin-1 receptor; in experiment [3]; in experiment [4]; at Motilin receptor) was above 30 µM in each case. The half-maximal activity concentration (AC50) in experiment [5] was above 30 µM; in experiment [6], 19 µM; at D(3) dopamine receptor, above 30 µM.
